# According to ChEMBL document CHEMBL4765389, “Antimicrobial and anti-inflammatory activities of short dodecapeptides derived from duck cathelicidin: Plausible mechanism of bactericidal action and endotoxin neutralization” (Eur J Med Chem, 2020):
# Activity calls are given as the source filed them. The rule behind the calls is not given here.
# Assays:
# [1] = test system: Staphylococcus aureus; experiment: Antibacterial activity against methicillin-resistant Staphylococcus aureus CCARM 3090 assessed as fractional inhibitory concentration incubated for 24 hrs in presence of chloramphenicol by CLSI based broth dilution method; type: functional
# [2] = Antibacterial activity against multidrug-resistant Pseudomonas aeruginosa CCARM 2095 assessed as reduction in bacterial growth incubated for 24 hrs in presence of oxacillin by CLSI based broth dilution method; type: functional; conditions: read-out: MIC100
# [3] = test system: Staphylococcus aureus; experiment: Antibacterial activity against methicillin-resistant Staphylococcus aureus CCARM 3090 assessed as fractional inhibitory concentration incubated for 24 hrs in presence of oxacillin by CLSI based broth dilution method; type: functional
# [4] = Antibacterial activity against multidrug-resistant Pseudomonas aeruginosa CCARM 2095 assessed as fractional inhibitory concentration incubated for 24 hrs in presence of ciprofloxacin by CLSI based broth dilution method; type: functional
# [5] = test system: Escherichia coli; experiment: Antibacterial activity against Escherichia coli KCTC 1682 assessed as reduction in bacterial growth incubated for 24 hrs in presence of 1 mM MgCl2 by CLSI based broth dilution method; type: functional; conditions: read-out: MIC100
# [6] = test system: Staphylococcus aureus; experiment: Antibacterial activity against Staphylococcus aureus KCTC 1621 assessed as reduction in bacterial growth incubated for 24 hrs in presence of 1 mM MgCl2 by CLSI based broth dilution method; type: functional; conditions: read-out: MIC100
# [7] = test system: Staphylococcus aureus; experiment: Antibacterial activity against methicillin-resistant Staphylococcus aureus CCARM 3090 assessed as reduction in bacterial growth incubated for 24 hrs in presence of oxacillin by CLSI based broth dilution method; type: functional; conditions: read-out: MIC100
# [8] = test system: Staphylococcus aureus; experiment: Antibacterial activity against methicillin-resistant Staphylococcus aureus CCARM 3090 assessed as reduction in bacterial growth incubated for 24 hrs in presence of chloramphenicol by CLSI based broth dilution method; type: functional; conditions: read-out: MIC100
# [9] = Antibacterial activity against multidrug-resistant Pseudomonas aeruginosa CCARM 2095 assessed as reduction in bacterial growth incubated for 24 hrs in presence of ciprofloxacin by CLSI based broth dilution method; type: functional; conditions: read-out: MIC100
# [10] = test system: RAW264.7; experiment: Antiinflammatory activity against mouse RAW264.7 cells assessed as reduction in LPS-induced TNFalpha mRNA expression at 10 uM incubated for 3 hrs by qRT-PCR analysis; type: functional, cell-based
# [11] = test system: Staphylococcus aureus; experiment: Antibacterial activity against methicillin-resistant Staphylococcus aureus CCARM 3090 assessed as fractional inhibitory concentration index incubated for 24 hrs in presence of oxacillin by CLSI based broth dilution method; type: functional
# [12] = test system: Staphylococcus aureus; experiment: Antibacterial activity against Staphylococcus aureus KCTC 1621 assessed as reduction in bacterial growth incubated for 24 hrs in presence of 4.5 mM KCl by CLSI based broth dilution method; type: functional; conditions: read-out: MIC100
# [13] = test system: RAW264.7; experiment: Antiinflammatory activity in mouse RAW264.7 cells assessed as suppression of LPS binding by measuring LPS-FITC aggregation at 10 uM pretreated with LPS for 1 hr followed by compound addition and measured after 30 mins by flowcytometry analysis (reference value: 67.93 %); type: functional; conditions: 0.5 h
# [14] = test system: Cell membrane; experiment: Induction of cell membrane permeability in Escherichia coli KCTC 1682 assessed as […] at 2 times MIC by ONPG dye based spectrophotometry; type: subcellular
# [15] = test system: RAW264.7; experiment: Antiinflammatory activity in mouse RAW264.7 cells assessed as neutralization of LPS binding by measuring LPS-FITC aggregation at 10 uM pretreated with LPS for 1 hr followed by compound addition and measured after 1 hr by flowcytometry analysis (reference value: 48.12 %); type: functional
# [16] = test system: Staphylococcus aureus; experiment: Antibacterial activity against methicillin-resistant Staphylococcus aureus CCARM 3090 assessed as fractional inhibitory concentration index incubated for 24 hrs in presence of ciprofloxacin by CLSI based broth dilution method; type: functional
# [17] = test system: Cell membrane; experiment: Induction of cell membrane permeability in Staphylococcus aureus KCTC 1621 assessed as cytoplasmic membrane depolarization at 2 times MIC by DiSC3-5 dye based spectrofluorometry; type: subcellular
# [18] = test system: Escherichia coli; experiment: Antibacterial activity against Escherichia coli KCTC 1682 assessed as reduction in bacterial growth incubated for 24 hrs in presence of 6 uM NH4Cl by CLSI based broth dilution method; type: functional; conditions: read-out: MIC100
# [19] = Antibacterial activity against multidrug-resistant Pseudomonas aeruginosa CCARM 2095 assessed as fractional inhibitory concentration index incubated for 24 hrs in presence of chloramphenicol by CLSI based broth dilution method; type: functional
# [20] = test system: Staphylococcus aureus; experiment: Antibacterial activity against Staphylococcus aureus KCTC 1621 assessed as reduction in bacterial growth incubated for 24 hrs in presence of 2.5 mM CaCl2 by CLSI based broth dilution method; type: functional; conditions: read-out: MIC100
# [21] = test system: Escherichia coli; experiment: Antibacterial activity against Escherichia coli KCTC 1682 assessed as reduction in bacterial growth incubated for 24 hrs in presence of 4.5 mM KCl by CLSI based broth dilution method; type: functional; conditions: read-out: MIC100
# [22] = test system: Staphylococcus aureus; experiment: Antibacterial activity against methicillin-resistant Staphylococcus aureus CCARM 3090 assessed as reduction in bacterial growth incubated for 24 hrs in presence of ciprofloxacin by CLSI based broth dilution method; type: functional; conditions: read-out: MIC100
# [23] = test system: Lipopolysaccharide (LPS); experiment: Displacement of BODIPY-TR cadaverine from Escherichia coli O111:B4 LPS at 10 uM measured for 100 sec by spectrofluorometry relative to control
# [24] = test system: Escherichia coli; experiment: Antibacterial activity against Escherichia coli KCTC 1682 assessed as reduction in bacterial growth incubated for 24 hrs in presence of 4 uM FeCl3 by CLSI based broth dilution method; type: functional; conditions: read-out: MIC100
# [25] = test system: Cell membrane; experiment: Induction of cell membrane permeability in Escherichia coli KCTC 1682 assessed as cytoplasmic membrane […] fluorescent signals at 2 times MIC measured after 1 hr by propidium iodide dye based flow cytometry analysis (reference value: 9.8 %); type: subcellular
# [26] = Antibacterial activity against multidrug-resistant Pseudomonas aeruginosa CCARM 2095 assessed as fractional inhibitory concentration incubated for 24 hrs in presence of chloramphenicol by CLSI based broth dilution method; type: functional
# [27] = Antibacterial activity against multidrug-resistant Pseudomonas aeruginosa CCARM 2095 assessed as fractional inhibitory concentration index incubated for 24 hrs in presence of oxacillin by CLSI based broth dilution method; type: functional
# [28] = test system: Staphylococcus aureus; experiment: Antibacterial activity against methicillin-resistant Staphylococcus aureus CCARM 3090 assessed as fractional inhibitory concentration incubated for 24 hrs in presence of ciprofloxacin by CLSI based broth dilution method; type: functional
# [29] = test system: Staphylococcus aureus; experiment: Antibacterial activity against Staphylococcus aureus KCTC 1621 assessed as reduction in bacterial growth incubated for 24 hrs in presence of 150 mM NaCl by CLSI based broth dilution method; type: functional; conditions: read-out: MIC100
# [30] = Antibacterial activity against multidrug-resistant Pseudomonas aeruginosa CCARM 2095 assessed as fractional inhibitory concentration index incubated for 24 hrs in presence of ciprofloxacin by CLSI based broth dilution method; type: functional
# [31] = test system: Staphylococcus aureus; experiment: Antibacterial activity against Staphylococcus aureus KCTC 1621 assessed as reduction in bacterial growth incubated for 24 hrs in presence of 6 uM NH4Cl by CLSI based broth dilution method; type: functional; conditions: read-out: MIC100
# [32] = Antibacterial activity against multidrug-resistant Pseudomonas aeruginosa CCARM 2095 assessed as fractional inhibitory concentration incubated for 24 hrs in presence of oxacillin by CLSI based broth dilution method; type: functional
# [33] = test system: Cell membrane; experiment: Induction of cell membrane permeability in Staphylococcus aureus KCTC 1621 assessed as cytoplasmic membrane depolarization at 2 times MIC by SYTOX dye based fluorescence assay; type: subcellular
# [34] = test system: Escherichia coli; experiment: Antibacterial activity against Escherichia coli KCTC 1682 assessed as reduction in bacterial growth incubated for 24 hrs in presence of 20 % serum by CLSI based broth dilution method; type: functional; conditions: read-out: MIC100
# [35] = test system: Lipopolysaccharide (LPS); experiment: Inhibition of Escherichia coli O111:B4 LPS aggregation assessed as increase in FITC-LPS dissociation by spectrofluorometry
# [36] = test system: Staphylococcus aureus; experiment: Antibacterial activity against methicillin-resistant Staphylococcus aureus CCARM 3090 assessed as fractional inhibitory concentration index incubated for 24 hrs in presence of chloramphenicol by CLSI based broth dilution method; type: functional
# [37] = test system: Escherichia coli; experiment: Antibacterial activity against Escherichia coli KCTC 1682 assessed as reduction in bacterial growth incubated for 24 hrs in presence of 150 mM NaCl by CLSI based broth dilution method; type: functional; conditions: read-out: MIC100
# [38] = test system: Staphylococcus aureus; experiment: Antibacterial activity against Staphylococcus aureus KCTC 1621 assessed as reduction in bacterial growth incubated for 24 hrs in presence of 20 % serum by CLSI based broth dilution method; type: functional; conditions: read-out: MIC100
# [39] = test system: Escherichia coli; experiment: Antibacterial activity against Escherichia coli KCTC 1682 assessed as reduction in bacterial growth incubated for 24 hrs in presence of 2.5 mM CaCl2 by CLSI based broth dilution method; type: functional; conditions: read-out: MIC100
# [40] = test system: RAW264.7; experiment: Antiinflammatory activity against mouse RAW264.7 cells assessed as reduction in LPS-induced iNOS mRNA expression at 5 uM incubated for 6 hrs by qRT-PCR analysis; type: functional, cell-based
# [41] = test system: Staphylococcus aureus; experiment: Antibacterial activity against Staphylococcus aureus KCTC 1621 assessed as reduction in bacterial growth incubated for 24 hrs in presence of 4 uM FeCl3 by CLSI based broth dilution method; type: functional; conditions: read-out: MIC100
# [42] = Antibacterial activity against multidrug-resistant Pseudomonas aeruginosa CCARM 2095 assessed as reduction in bacterial growth incubated for 24 hrs in presence of chloramphenicol by CLSI based broth dilution method; type: functional; conditions: read-out: MIC100
structure (smiles),measurement,setting,value
CC[C@H](C)[C@H](NC(=O)[C@H](CCCCN)NC(=O)[C@H](CCC(=O)O)NC(=O)[C@H](CCCCN)NC(=O)[C@H](CO)NC(=O)[C@H](CCCCN)NC(=O)[C@H](CCCNC(=N)N)NC(=O)[C@H](Cc1ccccc1)NC(=O)[C@H](Cc1ccccc1)NC(=O)[C@H](CC(=O)O)NC(=O)CNC(=O)[C@H](CC(C)C)NC(=O)[C@@H](N)CC(C)C)C(=O)NCC(=O)N[C@@H](CCCCN)C(=O)N[C@@H](CCC(=O)O)C(=O)N[C@@H](Cc1ccccc1)C(=O)N[C@@H](CCCCN)C(=O)N[C@@H](CCCNC(=N)N)C(=O)N[C@H](C(=O)N[C@H](C(=O)N[C@@H](CCC(N)=O)C(=O)N[C@@H](CCCNC(=N)N)C(=O)N[C@H](C(=O)N[C@@H](CCCCN)C(=O)N[C@@H](CC(=O)O)C(=O)N[C@@H](Cc1ccccc1)C(=O)N[C@@H](CC(C)C)C(=O)N[C@@H](CCCNC(=N)N)C(=O)N[C@@H](CC(N)=O)C(=O)N[C@@H](CC(C)C)C(=O)N[C@H](C(=O)N1CCC[C@H]1C(=O)N[C@@H](CCCNC(=N)N)C(=O)N[C@H](C(=O)N[C@@H](CCC(=O)O)C(=O)N[C@@H](CO)C(=O)O)[C@@H](C)O)C(C)C)[C@@H](C)CC)C(C)C)[C@@H](C)CC [CATHELICIDIN],FIC,[1],0.5
same,MIC,[2],128 µM
same,FIC,[3],0.25
same,FIC,[4],0.25
same,MIC,[5],16 µM
same,MIC,[6],8 µM
same,MIC,[7],128 µM
same,MIC,[8],64 µM
same,MIC,[9],128 µM
same,inhibition,[10],Active
same,fractional inhibitory concentration index (FICI),[11],0.75
same,MIC,[12],8 µM
same,Activity,[13],25.44%
same,Activity,[14],Active
same,Activity,[15],13.98%
same,fractional inhibitory concentration index (FICI),[16],1
same,Activity,[17],Active
same,MIC,[18],8 µM
same,fractional inhibitory concentration index (FICI),[19],1
same,MIC,[20],16 µM
same,MIC,[21],8 µM
same,MIC,[22],256 µM
same,Activity,[23],68%
same,MIC,[24],16 µM
same,Activity,[25],70.1%
same,FIC,[26],0.5
same,fractional inhibitory concentration index (FICI),[27],0.75
same,FIC,[28],0.5
same,MIC,[29],16 µM
same,fractional inhibitory concentration index (FICI),[30],1.25
same,MIC,[31],8 µM
same,FIC,[32],0.25
same,Activity,[33],Active
same,MIC,[34],8 µM
same,inhibition,[35],Dose-dependent effect
same,fractional inhibitory concentration index (FICI),[36],0.75
same,MIC,[37],16 µM
same,MIC,[38],8 µM
same,MIC,[39],16 µM
same,inhibition,[40],Active
same,MIC,[41],16 µM
same,MIC,[42],512 µM
